The source of these data is US12391648B2, “Pyridyloxy thioester derivative and preparation method therefor, herbicidal composition, and application” (Qingdao Kingagroot Chemical Compound Co., Ltd., priority 2018, dated 2025).

What all share (assay): Post-emergence test experiment (Table 3, 1000 g/ha)
Assay type in all cases: in vivo
Details in all cases: post-emergence spray, after 3 weeks, fresh weight inhibition

Assay [1] relates to Galium spurium. From the text: (§1) The activity level standard of harmful plants destruction (i. e. growth inhibition rate) is as follows: • Level 5: the growth inhibition rate is greater than 85%; • Level 4: the growth inhibition rate is equal to or greater than 60% and less than 85%; • Level 3: the growth inhibition rate is equal to or greater than 40% and less than 60%; • Level 2: the growth inhibition rate is equal to or greater than 20% and less than 40%; • Level 1: the growth inhibition rate is equal to or greater than 5% and less than 20%; • Level 0: the growth inhibition rate is less than 5%;
(§2) The above described growth inhibition rate is fresh weight inhibition rate.
(§3) Post-emergence test experiment: Monocotyledonous and dicotyledonous weed seeds and main crop seeds (i. e. wheat, corn, rice, soybean, cotton, oilseed, millet and sorghum.) were put into a plastic pot loaded with soil. Then covered with 0.5-2 cm soil, the seeds were allowed to grow in good greenhouse environment. The test plants were treated at 2-3 leaf stage 2 weeks after sowing. The test compounds of the invention were dissolved with acetone respectively, then added with tween-80, and using 1.5 liters per hectare of an emulsible concentrate of methyl oleate as a synergist, and diluted by certain amount of water to certain concentration. The solution was sprayed to the plants with a sprayer. Then the plants were cultured for 3 weeks in the greenhouse, and the experiment result of weed controlling effect after 3 weeks was listed in tables 3-4.

Assay [2] concerns Monochoria vaginalis.
Description: as §1, §2, §3

Assay [3] deals with Abutilon theophrasti.
Description: as §1, §2, §3

With `CSC(=O)C(F)Oc1nc(F)c(Cl)c(N)c1Cl` (stereo not drawn) [Compound 34], in assay [1], the “Activity level (growth inhibition rate) Galium spurium” value is listed as 5 (Level 5: the growth inhibition rate is greater than 85%). The “Activity level (growth inhibition rate) Monochoria Vaginalis” value in assay [2] is 5 (Level 5: the growth inhibition rate is greater than 85%). For the same molecule, the “Activity level (growth inhibition rate) Abutilon theophrasti” value in assay [3] is on record as 5 (Level 5: the growth inhibition rate is greater than 85%).

Consider `CSC(=O)C(Cl)Oc1nc(F)c(Cl)c(N)c1Cl` (stereo not drawn) [Compound 35], for which the “Activity level (growth inhibition rate) Galium spurium” value in assay [1] was 5 (Level 5: the growth inhibition rate is greater than 85%). Further, the “Activity level (growth inhibition rate) Monochoria Vaginalis” value in assay [2] is given as 5 (Level 5: the growth inhibition rate is greater than 85%). Moreover, in assay [3], the “Activity level (growth inhibition rate) Abutilon theophrasti” value is given as 5 (Level 5: the growth inhibition rate is greater than 85%).

For `CSC(=O)C(Br)Oc1nc(F)c(Cl)c(N)c1Cl` (stereo not drawn) [Compound 36], in assay [1], the “Activity level (growth inhibition rate) Galium spurium” value is reported as 5 (Level 5: the growth inhibition rate is greater than 85%). Also, the “Activity level (growth inhibition rate) Monochoria Vaginalis” value in assay [2] is 5 (Level 5: the growth inhibition rate is greater than 85%). In addition, in assay [3], the “Activity level (growth inhibition rate) Abutilon theophrasti” value is 5 (Level 5: the growth inhibition rate is greater than 85%).

With `CSC(=O)C(CCl)Oc1nc(F)c(Cl)c(N)c1Cl` (stereo not drawn) [Compound 37], the “Activity level (growth inhibition rate) Galium spurium” value in assay [1] is reported as 5 (Level 5: the growth inhibition rate is greater than 85%). The “Activity level (growth inhibition rate) Monochoria Vaginalis” value in assay [2] is on record as 5 (Level 5: the growth inhibition rate is greater than 85%). In addition, in assay [3], the “Activity level (growth inhibition rate) Abutilon theophrasti” value is given as 5 (Level 5: the growth inhibition rate is greater than 85%).

For the molecule `CSC(=O)C(CF)Oc1nc(F)c(Cl)c(N)c1Cl` (stereo not drawn) [Compound 38], the “Activity level (growth inhibition rate) Galium spurium” value in assay [1] is listed as 5 (Level 5: the growth inhibition rate is greater than 85%). In assay [2], the “Activity level (growth inhibition rate) Monochoria Vaginalis” value is given as 5 (Level 5: the growth inhibition rate is greater than 85%). Besides, the “Activity level (growth inhibition rate) Abutilon theophrasti” value in assay [3] is 5 (Level 5: the growth inhibition rate is greater than 85%).

As to `CSC(=O)C(Oc1nc(F)c(Cl)c(N)c1Cl)C(F)F` (stereo not drawn) [Compound 39], the “Activity level (growth inhibition rate) Galium spurium” value in assay [1] is 5 (Level 5: the growth inhibition rate is greater than 85%). For the same molecule, the “Activity level (growth inhibition rate) Monochoria Vaginalis” value in assay [2] was 5 (Level 5: the growth inhibition rate is greater than 85%). Besides, the “Activity level (growth inhibition rate) Abutilon theophrasti” value in assay [3] is recorded as 5 (Level 5: the growth inhibition rate is greater than 85%).

With `CSC(=O)C(CCCl)Oc1nc(F)c(Cl)c(N)c1Cl` (stereo not drawn) [Compound 40], the “Activity level (growth inhibition rate) Galium spurium” value in assay [1] is 5 (Level 5: the growth inhibition rate is greater than 85%). Besides, the “Activity level (growth inhibition rate) Monochoria Vaginalis” value in assay [2] is on record as 5 (Level 5: the growth inhibition rate is greater than 85%). Further, the “Activity level (growth inhibition rate) Abutilon theophrasti” value in assay [3] is recorded as 5 (Level 5: the growth inhibition rate is greater than 85%).

On to `CSC(=O)C(Oc1nc(F)c(Cl)c(N)c1Cl)C(F)(F)F` (stereo not drawn) [Compound 41], for which the “Activity level (growth inhibition rate) Galium spurium” value in assay [1] is 5 (Level 5: the growth inhibition rate is greater than 85%). Further, the “Activity level (growth inhibition rate) Monochoria Vaginalis” value in assay [2] is given as 5 (Level 5: the growth inhibition rate is greater than 85%). Also, the “Activity level (growth inhibition rate) Abutilon theophrasti” value in assay [3] was 5 (Level 5: the growth inhibition rate is greater than 85%).

Regarding `CSC(=O)C(CC(F)(F)F)Oc1nc(F)c(Cl)c(N)c1Cl` (stereo not drawn) [Compound 42], the “Activity level (growth inhibition rate) Galium spurium” value in assay [1] is 5 (Level 5: the growth inhibition rate is greater than 85%). Also, the “Activity level (growth inhibition rate) Monochoria Vaginalis” value in assay [2] is listed as 5 (Level 5: the growth inhibition rate is greater than 85%). Further, in assay [3], the “Activity level (growth inhibition rate) Abutilon theophrasti” value is reported as 5 (Level 5: the growth inhibition rate is greater than 85%).

In the case of `CSC(=O)C(C#N)Oc1nc(F)c(Cl)c(N)c1Cl` (stereo not drawn) [Compound 43], the “Activity level (growth inhibition rate) Galium spurium” value in assay [1] is given as 5 (Level 5: the growth inhibition rate is greater than 85%). The “Activity level (growth inhibition rate) Monochoria Vaginalis” value in assay [2] is recorded as 5 (Level 5: the growth inhibition rate is greater than 85%). In addition, the “Activity level (growth inhibition rate) Abutilon theophrasti” value in assay [3] is listed as 5 (Level 5: the growth inhibition rate is greater than 85%).

With `CSC(=O)C(CC#N)Oc1nc(F)c(Cl)c(N)c1Cl` (stereo not drawn) [Compound 44], in assay [1], the “Activity level (growth inhibition rate) Galium spurium” value is 5 (Level 5: the growth inhibition rate is greater than 85%). Also, in assay [2], the “Activity level (growth inhibition rate) Monochoria Vaginalis” value is listed as 5 (Level 5: the growth inhibition rate is greater than 85%). Moreover, in assay [3], the “Activity level (growth inhibition rate) Abutilon theophrasti” value was 5 (Level 5: the growth inhibition rate is greater than 85%).

Consider `CSC(=O)C(N)Oc1nc(F)c(Cl)c(N)c1Cl` (stereo not drawn) [Compound 45], for which the “Activity level (growth inhibition rate) Galium spurium” value in assay [1] is recorded as 5 (Level 5: the growth inhibition rate is greater than 85%). In addition, the “Activity level (growth inhibition rate) Monochoria Vaginalis” value in assay [2] was 5 (Level 5: the growth inhibition rate is greater than 85%). The “Activity level (growth inhibition rate) Abutilon theophrasti” value in assay [3] is recorded as 5 (Level 5: the growth inhibition rate is greater than 85%).

`CSC(=O)C(CN(C)C)Oc1nc(F)c(Cl)c(N)c1Cl` (stereo not drawn) [Compound 46]: the “Activity level (growth inhibition rate) Galium spurium” value in assay [1] was 5 (Level 5: the growth inhibition rate is greater than 85%). In assay [2], the “Activity level (growth inhibition rate) Monochoria Vaginalis” value is given as 5 (Level 5: the growth inhibition rate is greater than 85%). In assay [3], the “Activity level (growth inhibition rate) Abutilon theophrasti” value is 5 (Level 5: the growth inhibition rate is greater than 85%).

With `CSC(=O)C(Oc1nc(F)c(Cl)c(N)c1Cl)SC` (stereo not drawn) [Compound 47], in assay [1], the “Activity level (growth inhibition rate) Galium spurium” value is 5 (Level 5: the growth inhibition rate is greater than 85%). In addition, the “Activity level (growth inhibition rate) Monochoria Vaginalis” value in assay [2] is 5 (Level 5: the growth inhibition rate is greater than 85%). In assay [3], the “Activity level (growth inhibition rate) Abutilon theophrasti” value is recorded as 5 (Level 5: the growth inhibition rate is greater than 85%).

With `CSC(=O)C(CO)Oc1nc(F)c(Cl)c(N)c1Cl` (stereo not drawn) [Compound 48], in assay [1], the “Activity level (growth inhibition rate) Galium spurium” value is 5 (Level 5: the growth inhibition rate is greater than 85%). In addition, the “Activity level (growth inhibition rate) Monochoria Vaginalis” value in assay [2] is listed as 5 (Level 5: the growth inhibition rate is greater than 85%). Besides, the “Activity level (growth inhibition rate) Abutilon theophrasti” value in assay [3] is on record as 5 (Level 5: the growth inhibition rate is greater than 85%).

With `CSC(=O)C(Oc1nc(F)c(Cl)c(N)c1Cl)[N+](=O)[O-]` (stereo not drawn) [Compound 49], in assay [1], the “Activity level (growth inhibition rate) Galium spurium” value was 5 (Level 5: the growth inhibition rate is greater than 85%). The “Activity level (growth inhibition rate) Monochoria Vaginalis” value in assay [2] is 5 (Level 5: the growth inhibition rate is greater than 85%). The “Activity level (growth inhibition rate) Abutilon theophrasti” value in assay [3] is on record as 5 (Level 5: the growth inhibition rate is greater than 85%).

With `COC(Oc1nc(F)c(Cl)c(N)c1Cl)C(=O)SC` (stereo not drawn) [Compound 50], the “Activity level (growth inhibition rate) Galium spurium” value in assay [1] is 5 (Level 5: the growth inhibition rate is greater than 85%). Moreover, the “Activity level (growth inhibition rate) Monochoria Vaginalis” value in assay [2] is on record as 5 (Level 5: the growth inhibition rate is greater than 85%). For the same molecule, in assay [3], the “Activity level (growth inhibition rate) Abutilon theophrasti” value is 5 (Level 5: the growth inhibition rate is greater than 85%).

With `CSC(=O)C(C=O)Oc1nc(F)c(Cl)c(N)c1Cl` (stereo not drawn) [Compound 51], the “Activity level (growth inhibition rate) Galium spurium” value in assay [1] is listed as 5 (Level 5: the growth inhibition rate is greater than 85%). Further, the “Activity level (growth inhibition rate) Monochoria Vaginalis” value in assay [2] is 5 (Level 5: the growth inhibition rate is greater than 85%). Moreover, the “Activity level (growth inhibition rate) Abutilon theophrasti” value in assay [3] is recorded as 5 (Level 5: the growth inhibition rate is greater than 85%).

Consider `COC(=O)C(Oc1nc(F)c(Cl)c(N)c1Cl)C(=O)SC` (stereo not drawn) [Compound 52], for which the “Activity level (growth inhibition rate) Galium spurium” value in assay [1] was 5 (Level 5: the growth inhibition rate is greater than 85%). Besides, in assay [2], the “Activity level (growth inhibition rate) Monochoria Vaginalis” value is reported as 5 (Level 5: the growth inhibition rate is greater than 85%). Also, the “Activity level (growth inhibition rate) Abutilon theophrasti” value in assay [3] is given as 5 (Level 5: the growth inhibition rate is greater than 85%).

Take `CSC(=O)C(Oc1nc(F)c(Cl)c(N)c1Cl)c1cccs1` (stereo not drawn) [Compound 53]: the “Activity level (growth inhibition rate) Galium spurium” value in assay [1] is listed as 5 (Level 5: the growth inhibition rate is greater than 85%). Also, in assay [2], the “Activity level (growth inhibition rate) Monochoria Vaginalis” value was 5 (Level 5: the growth inhibition rate is greater than 85%). In addition, the “Activity level (growth inhibition rate) Abutilon theophrasti” value in assay [3] is listed as 5 (Level 5: the growth inhibition rate is greater than 85%).

`CSC(=O)C(Oc1nc(F)c(Cl)c(N)c1Cl)c1ccco1` (stereo not drawn) [Compound 54]: the “Activity level (growth inhibition rate) Galium spurium” value in assay [1] is listed as 5 (Level 5: the growth inhibition rate is greater than 85%). Besides, in assay [2], the “Activity level (growth inhibition rate) Monochoria Vaginalis” value is reported as 5 (Level 5: the growth inhibition rate is greater than 85%). Further, the “Activity level (growth inhibition rate) Abutilon theophrasti” value in assay [3] is given as 5 (Level 5: the growth inhibition rate is greater than 85%).

With `CSC(=O)C(Oc1nc(F)c(Cl)c(N)c1Cl)c1cscn1` (stereo not drawn) [Compound 55], in assay [1], the “Activity level (growth inhibition rate) Galium spurium” value is 5 (Level 5: the growth inhibition rate is greater than 85%). In assay [2], the “Activity level (growth inhibition rate) Monochoria Vaginalis” value is reported as 5 (Level 5: the growth inhibition rate is greater than 85%). In assay [3], the “Activity level (growth inhibition rate) Abutilon theophrasti” value is on record as 5 (Level 5: the growth inhibition rate is greater than 85%).

For `CCn1nccc1C(Oc1nc(F)c(Cl)c(N)c1Cl)C(=O)SC` (stereo not drawn) [Compound 56], the “Activity level (growth inhibition rate) Galium spurium” value in assay [1] is 5 (Level 5: the growth inhibition rate is greater than 85%). Besides, the “Activity level (growth inhibition rate) Monochoria Vaginalis” value in assay [2] is on record as 5 (Level 5: the growth inhibition rate is greater than 85%). Further, the “Activity level (growth inhibition rate) Abutilon theophrasti” value in assay [3] is 5 (Level 5: the growth inhibition rate is greater than 85%).
